Laboratory results: patent US5137890A, “4-phenyl tetrahydropyrido(4,3-d)pyrimidines” (Ortho Pharmaceutical Corporation, priority 1990, dated 1992)
Counter-ions that a name gives are not always drawn.

How the values were obtained:
[1] = tested on: Ethanol-Induced Lesions; experiment: Cytoprotection: inhibition of ethanol-induced lesions; type: in vivo, male, Charles River rats; details: Rattus norvegicus, oral, 1 hour before 50% ethanol
Description: Using the procedures of Robert, A. et al., Gastroenterology 77, 433(1979), male, Charles River rats weighing between 140 and 220 g were fasted overnight, but allowed water ad libitum. The rats were, however, deprived of water during the experiment. The rats were weighed and pretreated orally with the example compounds at the doses shown below in Table 1. One hour later, the necrotizing agent, 50% ethanol, was administered orally in a dose volume of 1 ml/animal. After an additional hour, the rats were sacrificed with CO2, the stomachs removed, inflated with distilled water, opened along the greater curvature and laid out on a flat surface. The presence of mucosal bleeding was noted and after wiping off the mucosa, the presence of submucosal bleeding was also noted. The incidence of lesions in the mucosa and the submucosa was statistically analyzed by the method of Chisquares using Yates correction.

[2] = tested on: 80 mg/kg aspirin; experiment: Cytoprotection vs. 80 mg/kg aspirin (footnotes of Table 1); type: in vivo

| SMILES | inhibition in vivo at 10 mg/kg [1] | ED50 [1] | other results |
| --- | --- | --- | --- |
| CC(=O)N1CCc2nc(C)nc(-c3ccc(Cl)cc3)c2C1 [Example 1, 6-Acetyl-4-(4-chlorophenyl)-2-methyl-5,6,7,8-tetrahydropyrido[4,3-d]pyrimidine] | 20% |  |  |
| CC(=O)N1CCc2nc(C)nc(-c3ccc(F)cc3)c2C1 [Example 2, 6-Acetyl-4-(4-fluorophenyl)-2-methyl-5,6,-7,8-tetrahydropyrido[4,3-d]pyrimidine Monohydrochloride Monohydrate] | 100% |  | 8/10 vs. 80 mg/kg aspirin ([2]; at 20 mg/kg vs. 80 mg/kg aspirin): 8/10 |
| CCN1CCc2nc(Nc3ccc(C(F)(F)F)cc3)nc(-c3ccc(Cl)cc3)c2C1 [Example 5, 4-(4-chlorophenyl)-6-ethyl-2-(4-trifluromethylphenylamino)-5,6,7,8-tetrahydropyrido[4,3-d]pyrimidine dihydrochloride monohydrate] | 20% |  |  |
| CCNc1nc2c(c(-c3ccc(F)cc3)n1)CN(C(C)=O)CC2 [Example 7, 6-Acetyl-4-(4-fluorophenyl)-2-ethylamino-5,6,7,8-tetrahydropyrido[4,3-d]pyrimidine] |  | 5 mg/kg |  |
| C=CCN1CCc2nc(NCC)nc(-c3ccc(Cl)cc3)c2C1 [Example 9, 6-Allyl-4-(4-chlorophenyl)-2-ethylamino-5,6,7,8-tetrahydropyrido[4,3-d]pyrimidine] | 80% |  |  |
| CCNc1nc2c(c(-c3ccc(Cl)cc3)n1)CN(Cc1ccccc1)CC2 [Example 10, 6-Benzyl-4-(4-chlorophenyl)-2-ethylamino-5,6,7,8-tetrahydropyrido[4,3-d]pyrimidine] | 20% |  |  |
| CCNc1nc2c(c(-c3ccc(Cl)cc3)n1)CN(CC)CC2 [Example 11, 4-(4-Chlorophenyl)-6-ethyl-2-ethylamino-5,6,7,8-tetrahydropyrido[4,3-d]pyrimidine] |  | 9.5 mg/kg |  |
| CCNc1nc2c(c(-c3ccc(F)cc3)n1)CNCC2.Cl [Example 12, 2-Ethylamino-4-(4-fluorophenyl)5,6,7,8-tetrahydropyrido[4,3-d]pyrimidine Monohydrochloride] |  | 4.7 mg/kg | 8/10 vs. 80 mg/kg aspirin ([2]; at 10 mg/kg vs. 80 mg/kg aspirin): 8/10 |
| CC(=O)N1CCc2nc(N)nc(-c3ccc(Cl)cc3)c2C1 [Example 13, 6-Acetyl-2-amino-4-(4-chlorophenyl)-5,6,7,8-tetrahydropyrido[4,3-d]pyrimidine] |  | ~3 mg/kg |  |
| CC(=O)N1CCc2nc(N)nc(-c3ccc(F)cc3)c2C1 [Example 14, 6-Acetyl-2-amino-4-(4-fluorophenyl)-5,6,7,8-tetrahydropyrido[4,3-d]pyrimidine Monohydrate] | 80% |  |  |
| Nc1nc2c(c(-c3ccc(Cl)cc3)n1)CNCC2 [Example 15, 2-Amino-4-(4-chlorophenyl)-5,6,7,8-tetrahydropyrido[4,3-d]pyrimidine Dihydrochloride] | 40% |  |  |
| Nc1nc2c(c(-c3ccc(F)cc3)n1)CNCC2 [Example 16, 2-amino-4-(4-fluorophenyl)-5,6,7,8-tetrahydropyrido[4,3-d]pyrimidine dihydrochloride hemihydrate] | 80% |  |  |
| CCN1CCc2nc(N)nc(-c3ccc(Cl)cc3)c2C1.Cl.Cl [Example 17, 2-Amino-4-(4-chlorophenyl)-6-ethyl-5,6,7,8-tetrahydropyrido[4,3-d]pyrimidine Dihydrochloride] |  | 3.2 mg/kg | ED50 [2]: 14.5 mg/kg |
| CCN1CCc2nc(N)nc(-c3ccc(F)cc3)c2C1 [Example 18, 2-Amino-4-(4-fluorophenyl)-6-ethyl-5,6,7,8-tetrahydropyrido[4,3-d]pyrimidine] |  | 3.7 mg/kg | 8/10 v. 80 mg/kg aspirin ([2]; at 40 mg/kg v. 80 mg/kg aspirin): 8/10 |
| CCCN1CCc2nc(N)nc(-c3ccc(Cl)cc3)c2C1 [Example 19, 2-Amino-4-(4-chlorophenyl)-6-propyl-5,6,7,8-tetrahydropyrido[4,3-d]-pyrimidine Dihydrochloride 1/4 Hydrate] |  | 2.7 mg/kg |  |
| C=CCN1CCc2nc(N)nc(-c3ccc(Cl)cc3)c2C1.Cl.Cl [Example 20, 6-Allyl-2-amino-4-(4-chlorophenyl)-5,6,7,8-tetrahydropyrido[4,3-d]pyrimidine Dihydrochloride] |  | 7.9 mg/kg |  |
| C=CCN1CCc2nc(N)nc(-c3ccc(F)cc3)c2C1.Cl.Cl [Example 21, 6-Allyl-2-amino-4-(4-fluorophenyl)-5,6,7,8-tetrahydropyrido[4,3-d]pyrimidine Dihydrochloride] |  | 5 mg/kg |  |
| CN1CCc2nc(N)nc(-c3ccc(Cl)cc3)c2C1 [Example 22, 2-Amino-4-(4-chlorophenyl)-6-methyl-5,6,7,8-tetrahydropyrido[4,3-d]pyrimidine 1/4 Hydrate] | 100% |  |  |
| CC(=O)N1CCc2nc(N)nc(-c3ccccc3)c2C1.O [Example 23, 6-Acetyl-2-amino-4-phenyl-5,6,7,8-tetrahydropyrido[4,3-d]pyrimidine Monohydrate] |  | 2.3 mg/kg | ED50 [2]: 9.5 mg/kg |
| CC(=O)N1CCc2nc(C)nc(-c3ccc(C)cc3)c2C1 [Example 24, 6-Acetyl-2-methyl-4-(4-methylphenyl)-5,6,7,8-tetrahydropyrido[4,3-d]pyrimidine Monohydrate] | 40% |  |  |
| CCCN(CCC)c1nc2c(c(-c3ccc(C)cc3)n1)CN(C(C)=O)CC2 [Example 25, 6-Acetyl-5,6,7,8-tetrahydro-4-(4-methylphenyl) -2-dipropylaminopyrido[4,3-d]-pyrimidine Monohydrate] | 40% |  |  |
| CCN(CC)CCN1CCc2nc(N)nc(-c3ccc(F)cc3)c2C1 [Example 26, 2-Amino-6-(2-diethylaminoethyl)-4-(4-fluorophenyl)-5,6,7,8-tetrahydropyrido[4,3-d]pyrimidine Trihydrochloride] | 80% |  |  |
| CN(C)CCCN1CCc2nc(N)nc(-c3ccc(F)cc3)c2C1 [Example 27, Trihydrochloride] |  | ~7 mg/kg |  |
